From PMC4013053, “Identification of Selective Small Molecule Inhibitors of the Nucleotide-Binding Oligomerization Domain 1 (NOD1) Signaling Pathway” (PLoS ONE, 2014)

Columns and labels:
[1] = system: NOD1 induced NF-κB and MAPK pathways; assay: Western blotting of IκBα and phospho-MAPKs in Tri-DAP stimulated 293/hNOD1 cells; type: cell-based, human; details: 50 µg/mL Tri-DAP 1 hour, immunoblotting
Protocol: Confluent cultures of 293/hNOD1 and -hNOD2 cells seeded in 24-well plates were serum-starved over-night, pre-incubated for 1 hour with compound and then stimulated for 1 hour with either 50 µg/mL Tri-DAP or 25 µg/mL MDP, respectively. Whole cell lysates were prepared in 1X cell lysis buffer (Cell Signaling Technology) supplemented with additional protease, aminopeptidase and phosphatase inhibitors (protease inhibitor cocktail set III, EMD Biosciences; phosphatase inhibitor sets II and III, Sigma-Aldrich). The levels of phosphorylated and total p38, JNK, ERK1/2 and total IκBα were determined by immunoblotting of ∼20 µg protein per sample using the following primary antibodies: phospho-p38 MAPK (12F8, #4631), p38 MAPK (#9212), phospho-JNK (#9251), JNK (#9252) and IκBα (#9242) all purchased from Cell Signaling Technology, and phospho-ERK1/2 (sc-7383) and ERK1/2 (sc-94) antibodies from Santa Cruz Biotechnology.

[2] = system: TLR4; set-up: method as in PMID 22870324; details: human lung microvascular endothelial cells; cited from earlier work
[3] = biological target: T1, NOD1 (Mus musculus, UniProt Q8BHB0); assay: FK156 acute peritonitis model in mice, serum KC and IP-10; type: in vivo; details: oral administration, intraperitoneal FK156, data not shown
T1 construct: following intraperitoneal injection of FK156 in a model of acute peritonitis; from tissue; host or cells: whole mouse (in vivo)
T1 sequence (Q8BHB0 1-953): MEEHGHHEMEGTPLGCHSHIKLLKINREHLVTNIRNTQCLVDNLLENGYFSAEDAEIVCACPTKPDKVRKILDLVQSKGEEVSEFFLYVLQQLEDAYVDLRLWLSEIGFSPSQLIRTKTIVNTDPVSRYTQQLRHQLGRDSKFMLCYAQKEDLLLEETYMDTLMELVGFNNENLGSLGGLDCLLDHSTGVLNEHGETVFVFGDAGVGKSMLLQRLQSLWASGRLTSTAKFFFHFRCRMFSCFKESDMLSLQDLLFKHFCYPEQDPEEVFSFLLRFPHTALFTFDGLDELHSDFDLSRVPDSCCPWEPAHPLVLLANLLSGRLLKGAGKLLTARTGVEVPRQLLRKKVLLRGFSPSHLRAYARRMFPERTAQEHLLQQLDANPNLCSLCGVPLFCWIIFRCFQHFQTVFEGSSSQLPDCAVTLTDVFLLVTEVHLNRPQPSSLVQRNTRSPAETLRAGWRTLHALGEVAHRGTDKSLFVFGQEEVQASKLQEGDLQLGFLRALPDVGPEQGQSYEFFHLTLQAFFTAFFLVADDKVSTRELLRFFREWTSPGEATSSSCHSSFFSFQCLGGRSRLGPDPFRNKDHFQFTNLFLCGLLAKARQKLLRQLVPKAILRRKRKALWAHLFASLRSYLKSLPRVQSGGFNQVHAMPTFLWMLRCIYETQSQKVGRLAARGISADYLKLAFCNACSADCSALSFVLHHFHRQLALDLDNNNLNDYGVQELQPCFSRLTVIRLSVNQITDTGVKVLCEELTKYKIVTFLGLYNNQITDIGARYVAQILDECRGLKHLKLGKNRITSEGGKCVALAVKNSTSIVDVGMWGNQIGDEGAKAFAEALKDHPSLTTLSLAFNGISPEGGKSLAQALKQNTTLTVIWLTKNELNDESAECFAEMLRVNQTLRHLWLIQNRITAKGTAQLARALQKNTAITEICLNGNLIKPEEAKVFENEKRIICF
Text: We speculate that the known differences in ligand recognition between human and mouse NOD1 mapped to residues within the leucine-rich repeat domains could underlie the observed differential activity of the compounds on human versus mouse NOD1 signaling.

[4] = system: panel of 300 human kinases; assay: Kinase activity panel (Reaction Biology Corp); type: biochemical; details: 1 µM compound, 10 µM ATP, 300 kinases
Protocol: (§1) The compounds were tested in duplicate at 1 µM with a 20-minute pre-incubation with enzyme followed by addition of 10 µM ATP.

[5] = biological target: T2, CAMK1 (Homo sapiens, UniProt Q14012); assay: Kinase activity panel: CAMK1; type: biochemical; details: 1 µM compound, 10 µM ATP
T2 construct: purchased Reaction Biology Corp
Protocol: as §1

[6] = biological target: T3, EPHB2 (Homo sapiens, UniProt P29323); assay: Kinase activity panel: EPHB2; type: biochemical; details: 1 µM compound, 10 µM ATP
T3 construct: purchased Reaction Biology Corp
T3 sequence (P29323 19-1055): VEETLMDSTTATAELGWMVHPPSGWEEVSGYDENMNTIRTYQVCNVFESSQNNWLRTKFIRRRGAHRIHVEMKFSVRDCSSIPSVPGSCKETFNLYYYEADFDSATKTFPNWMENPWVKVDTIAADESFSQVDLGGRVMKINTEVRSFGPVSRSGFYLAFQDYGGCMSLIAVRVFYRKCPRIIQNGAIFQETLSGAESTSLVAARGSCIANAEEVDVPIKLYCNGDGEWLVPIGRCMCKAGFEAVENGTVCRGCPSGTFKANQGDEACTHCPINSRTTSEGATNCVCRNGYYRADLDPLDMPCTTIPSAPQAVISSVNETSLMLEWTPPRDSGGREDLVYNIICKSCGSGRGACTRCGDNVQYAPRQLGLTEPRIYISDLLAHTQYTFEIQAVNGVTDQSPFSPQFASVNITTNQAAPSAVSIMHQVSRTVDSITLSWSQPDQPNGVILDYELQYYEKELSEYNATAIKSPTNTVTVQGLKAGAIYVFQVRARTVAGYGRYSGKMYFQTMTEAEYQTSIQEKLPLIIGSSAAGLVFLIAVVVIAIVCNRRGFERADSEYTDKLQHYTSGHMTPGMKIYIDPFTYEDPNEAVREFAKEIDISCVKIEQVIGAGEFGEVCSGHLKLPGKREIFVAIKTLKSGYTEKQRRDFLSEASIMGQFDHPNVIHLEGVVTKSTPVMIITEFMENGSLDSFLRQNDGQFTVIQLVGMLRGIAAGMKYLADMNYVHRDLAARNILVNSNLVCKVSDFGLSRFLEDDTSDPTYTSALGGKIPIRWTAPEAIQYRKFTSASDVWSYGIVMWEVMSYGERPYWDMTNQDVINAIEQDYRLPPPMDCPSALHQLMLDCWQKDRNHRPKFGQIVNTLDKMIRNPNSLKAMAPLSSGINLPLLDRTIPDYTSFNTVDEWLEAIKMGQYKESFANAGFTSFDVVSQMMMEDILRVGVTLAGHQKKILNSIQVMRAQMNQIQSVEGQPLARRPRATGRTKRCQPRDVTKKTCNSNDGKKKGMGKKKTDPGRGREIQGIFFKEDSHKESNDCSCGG
Protocol: as §1

## Cc1ccc(S(=O)(=O)Nc2cccc(C(=O)Nc3ccc4nc(C)sc4c3)c2)cc1 [Compound 16]
[1]
  effect on Tri-DAP induced p-JNK, p-p38 and IκBα responses: reduced both phospho-JNK and the weaker phospho-p38 levels while levels of IκBα were increased

## Cc1nc2ccccc2c(=O)n1-c1ccc(Cl)c(NS(=O)(=O)c2ccccc2F)c1 [Compound 22]
[2]
  effect on IL-8 release, LPS stimulated: no inhibitory effect
[3]
  effect on serum KC and IP-10 (CXCL10): failed to reduce serum KC and IP-10 (CXCL10)

## CCc1ccc(S(=O)(=O)Nc2cc(-n3c(C)nc4ccccc4c3=O)ccc2F)s1 [GSK223]
[4]
  inhibition of any kinase in panel: ≤ 50%

## Cc1nc2ccc(NC(=O)c3cccc(NS(=O)(=O)c4ccc(F)cc4)c3)cc2s1 [GSK966]
[5]
  decrease of CAMK1 activity: 55%

## Cn1c(=O)[nH]c(=O)c2c1nc(CCSc1ccccc1)n2Cc1ccccc1 [SB711]
[6]
  decrease of EPHB2 activity: 51%
